Each structure is given as a SMILES string.

Assay [1] has as its system T. cruzi Tulahuen trypomastigotes. The experiment in a line: T. cruzi trypomastigote assay (Cell Titer-Glo viability, ATP luminescence). It counts as cell-based, Trypanosoma cruzi. To be noted: for Trypomastigotes pIC50 48 hours: 48 hours incubation; for Trypomastigotes pIC50 48 hours / Trypomastigotes pIC50 72 hours: pIC50 = -log10 IC50 in molar units; for Trypomastigotes pIC50 72 hours: 72 hours incubation; for 48 pIC50 / 72 pIC50: trypomastigote assay; for 48 pIC50: 48 h; for 72 pIC50: 72 h. Put shortly:
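Tulahuen trypomastigotes from infected LLC-MK2 culture supernatants (days 5–8) plated at 5 × 10^4 per well in DMEM/2% FBS with compound at 5 μM single-shot final or in dose response. Viability by CellTiter-Glo ATP luminescence after 10 min at room temperature, normalised to no-cell (100%) and DMSO (0%) controls.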

In the next assay the test system is TcCYP51. The conditions noted are these: formerly reported; cited from earlier work.
The test system of assay [2] is T. cruzi intracellular amastigotes in H9c2 cells. The experiment in a line: Rate-of-Kill (RoK) high-content imaging assay, amastigotes per cell (AM/CELL) and curve descriptors. It counts as cell-based, Trypanosoma cruzi. The conditions noted are these: maximum percentage of parasite burden reduction reached by any concentration, 24 hours. How it is done: For this high-content intracellular imaging assay, H9c2 cells were seeded in 225 cm^2 T- FLASK in DMEM with 10% FBS for 4 h to allow attachment. T. cruzi trypomastigotes, collected at days 5 to 8 after infection from LLC-MK2 parasite infected cultures, were allowed to swim out for 4 h at 37°C from a centrifuged pellet (1,600 x g / 10 min). Trypomastigotes were then collected and counted in a CASY Cell Counter using the 60 μm capillary. Trypomastigotes, in supplemented DMEM, were added to H9c2 cultures in a multiplicity of infection (MOI) of 8 and incubated for 18 h. Cells were washed once with PBS before incubation of the infected H9c2 monolayer with trypsin (Life-Technologies) to detach cells from the flask. Cells were counted in a CASY Cell Counter, using the 150 μm capillary, and their density set at 5 x 10^4 cells/mL in supplemented DMEM. Infected H9c2 were dispensed into 384-well plates at 50 μL per well using a Multidrop Combi dispenser. Control wells used to determine a 100% parasitic growth (full 6th column of each plate) were left untreated, whereas not infected cells were added in the control wells used as 0% parasite growth (or 100% parasite growth inhibition; full 18th column of each plate). The four plates corresponding to each RoK assay were predispensed for the same mother plate. […] Cultures were then fixed and stained with 50 μL per well of a PBS solution containing 4% formaldehyde and 2 μM DRAQ5 DNA dye (BioStatus, UK). Then plates were read in a PerkinElmer Opera Phenix using a 20x objective, 3 fields per well. DRAQ5 signal was detected using 640 nm excitation laser and a 690/50 nm emission detection filter. Automated image analysis was performed with a script developed on Acapella High Content Imaging and Analysis Software (PerkinElmer). Two outputs were provided for each sample well: (1) number of host cells nuclei to determine drug-related cytotoxicity (aka H9c2) and (2) number of amastigotes per cell as infection level measurement (aka AM/CELL). Each output is plotted as a time course for each compound at every concentration. This assay was adapted from Alonso-Padilla et al. and Peña et al..
To identify and classify the different compounds, the number of amastigotes per cell (AM/CELL) raw data obtained in rate of kill assay are normalised using the average of C1 (infected cells) at time 4 hours as 0% effect and the average of C2 (non-infected cells) for each time as 100% effect, according to the following Eq 1: %CIDALRESPONSE=100*[Avg_C14h-RawData]/[Avg_C14h-Avg_C2] (1)
• ME (Maximum Effect) is the maximum percentage of parasite burden reduction reached by any compound concentration. Compounds that decrease the initial parasite load will show a positive value of ME, whereas compounds that allow the progression of infection will render a negative ME value. […] It is calculated for the MCC50 (t50%_MCC50) and for the maximum concentration (t50%_Cmax). […] The value of this parameter is not either interpolated or extrapolated, and it refers to the first experimental time-course point at which a 50% of effect is reached or exceeded. • tlag defines the time elapsed for one particular concentration to reduce parasite burden between two consecutive points at any moment of the time course. It is calculated for the MCC50 (tlag_MCC50) and for the maximum concentration (tlag_Cmax). The value of this parameter is not either interpolated or extrapolated, and it refers to the first experimental time-course point of a positive slope in the normalised plot (i.e. %Cidal_Response). • Cmin_Tox (Minimal CytoToxic Concentration) is the lowest compound concentration that is reducing the number of host mammalian cells below 50% of initial cell density. Cytotoxic compounds may mislead a bona fide antiparasitic action.

For `O=C(NC(c1ccc(Cl)cc1)c1cnccn1)C1CCN(C(=O)Nc2cccc(C(F)(F)F)c2)CC1` (centres unmarked) [TCMDC-143561], in assay [1], the “Trypomastigotes pIC50 48 hours” value is on record as below 4.3 and the “Trypomastigotes pIC50 72 hours” value is on record as below 4.3. In assay [1] (figure 1A), the “48 pIC50” value is below 4.3 and the “72 pIC50” value is listed as below 4.3. In addition, in assay [1] (figure 1B), the “72 pIC50” value was below 4.3. Also, the “CYP51 pIC50” value with TcCYP51 is reported as 6.9.
As for `O=C(COc1ncnc2cc([N+](=O)[O-])ccc12)NC(=O)NC1CCCCC1` [TCMDC-143564], in assay [1], the “Trypomastigotes pIC50 48 hours” value was found to be 5.7 and the “Trypomastigotes pIC50 72 hours” value came out at 5.9. Also, the “CYP51 pIC50” value with TcCYP51 was below 4.
Consider `Clc1cc(Br)ccc1OCCCCn1ccnc1.O=C(O)C(=O)O` [TCMDC-143590], for which, in assay [1], the “Trypomastigotes pIC50 48 hours” value was 5.4 and the “Trypomastigotes pIC50 72 hours” value is 5.3. In addition, the “CYP51 pIC50” value in the assay on TcCYP51 is listed as 7.2.
On to `CC(C)Oc1ccc(C(=O)Nc2ccc(N3CCOCC3)c(Cl)c2)cc1` [TCMDC-143592], for which, in assay [1], the “Trypomastigotes pIC50 48 hours” value was below 4.3 and the “Trypomastigotes pIC50 72 hours” value is reported as below 4.3. Further, in assay [1] (figure 1A), the “48 pIC50” value is recorded as below 4.3 and the “72 pIC50” value is listed as below 4.3. Also, the “72 pIC50” value in assay [1] (figure 1B) is recorded as below 4.3. The “CYP51 pIC50” value in the assay on TcCYP51 is listed as below 4.
In the case of `Cl.Cl.NC(=O)c1ccc(-c2cccc(OCCN3CCN(C4CCCCC4)CC3)c2)cc1` [TCMDC-143598], in assay [1], the “Trypomastigotes pIC50 48 hours” value is below 4.3 and the “Trypomastigotes pIC50 72 hours” value is reported as below 4.3. In addition, in assay [1] (figure 1A), the “48 pIC50” value is given as below 4.3 and the “72 pIC50” value is on record as below 4.3. In assay [1] (figure 1B), the “72 pIC50” value was below 4.3. Further, in the assay on TcCYP51, the “CYP51 pIC50” value is 4.4.
As to `CCCC(=O)N(Cc1ccccn1)c1nc2ccccc2s1` [TCMDC-143599], in assay [1], the “Trypomastigotes pIC50 48 hours” value is recorded as below 4.3 and the “Trypomastigotes pIC50 72 hours” value is on record as below 4.3. Besides, in assay [1] (figure 1A), the “48 pIC50” value is on record as below 4.3 and the “72 pIC50” value is listed as below 4.3. Further, the “72 pIC50” value in assay [1] (figure 1B) is on record as below 4.3. For the same compound, the “CYP51 pIC50” value in the assay on TcCYP51 is listed as 7.3.
In the case of `Clc1ccc(CN2CCN(C3=NCCN3)CC2)cc1Cl.I.I` [TCMDC-143605], in assay [1], the “Trypomastigotes pIC50 48 hours” value came to 5.6 and the “Trypomastigotes pIC50 72 hours” value is given as 5.3. Besides, in the assay on TcCYP51, the “CYP51 pIC50” value is listed as below 4.
Turning to `N#Cc1c(Oc2cccc(Cl)c2)cccc1[N+](=O)[O-]` [TCMDC-143608], in assay [1], the “Trypomastigotes pIC50 48 hours” value turned out to be 6.9 and the “Trypomastigotes pIC50 72 hours” value worked out at 6.9. Also, in assay [1] (figure 1A), the “48 pIC50” value is on record as 6.9 and the “72 pIC50” value was 6.9. Moreover, in assay [1] (figure 1B), the “72 pIC50” value is given as 6.9. For the same compound, in the assay on TcCYP51, the “CYP51 pIC50” value is below 4.
On to `Cc1cc(N(C)C)nc2ccc(Cc3cnc(N)nc3N)cc12` [TCMDC-143611], for which, in assay [1], the “Trypomastigotes pIC50 48 hours” value is on record as 4.6 and the “Trypomastigotes pIC50 72 hours” value was found to be 5.9. Further, the “CYP51 pIC50” value in the assay with TcCYP51 is recorded as below 4.
For the compound `O=C(NCC1CCCCC1)c1cnns1` [TCMDC-143612], in assay [1], the “Trypomastigotes pIC50 48 hours” value is 4.7 and the “Trypomastigotes pIC50 72 hours” value was 4.9. Further, in the assay with TcCYP51, the “CYP51 pIC50” value is listed as below 4.
For `O=C1CN(C2CCCc3c(OCc4ccncc4)cccc32)C(=O)N1C1CCCCC1` (centres unmarked) [TCMDC-143613], in assay [1], the “Trypomastigotes pIC50 48 hours” value is recorded as below 4.3 and the “Trypomastigotes pIC50 72 hours” value is given as below 4.3. In assay [1] (figure 1A), the “48 pIC50” value is given as below 4.3 and the “72 pIC50” value was below 4.3. In addition, in assay [1] (figure 1B), the “72 pIC50” value is recorded as below 4.3. Also, in the assay with TcCYP51, the “CYP51 pIC50” value is 7.7.
On to `CC(C)(C)C(O)(CCc1ccc(Cl)cc1)Cn1cncn1` (centres unmarked) [TCMDC-143614], for which, in assay [1], the “Trypomastigotes pIC50 48 hours” value is on record as below 4.3 and the “Trypomastigotes pIC50 72 hours” value is below 4.3. Besides, in assay [1] (figure 1A), the “48 pIC50” value is reported as below 4.3 and the “72 pIC50” value was below 4.3. Further, in assay [1] (figure 1B), the “72 pIC50” value is listed as below 4.3. Also, in the assay with TcCYP51, the “CYP51 pIC50” value is listed as 6.9.
For the compound `Cc1cccc(NS(=O)(=O)c2ccc3c(c2)C(=O)c2cc(S(=O)(=O)Nc4cccc(C)c4C)ccc2-3)c1C` [TCMDC-143615], in assay [1], the “Trypomastigotes pIC50 48 hours” value came to 5 and the “Trypomastigotes pIC50 72 hours” value is given as 4.8. Moreover, in the assay on TcCYP51, the “CYP51 pIC50” value is listed as below 4.
Regarding `O=C(Cn1cnc([N+](=O)[O-])n1)Nc1ccc(Cl)cc1C(=O)c1ccccc1` [TCMDC-143616], in assay [1], the “Trypomastigotes pIC50 48 hours” value came to 6 and the “Trypomastigotes pIC50 72 hours” value is 6. Moreover, in assay [1] (figure 1A), the “48 pIC50” value was 6 and the “72 pIC50” value is 6. The “72 pIC50” value in assay [1] (figure 1B) is recorded as 6. Besides, the “CYP51 pIC50” value in the assay on TcCYP51 is 5.
Turning to `N#Cc1ccc(S(=O)(=O)N2CCN(Cc3cccc(-c4ccncc4)c3)CC2)cc1` [TCMDC-143620], in assay [1], the “Trypomastigotes pIC50 48 hours” value was found to be 4.4 and the “Trypomastigotes pIC50 72 hours” value is given as below 4.3. In addition, in the assay on TcCYP51, the “CYP51 pIC50” value is recorded as 7.1.
Consider `Cc1cc(C)c(C#N)c(SCC(=O)c2ccc3c(c2)OCO3)n1` [TCMDC-143625], for which, in assay [1], the “Trypomastigotes pIC50 48 hours” value was 5.7 and the “Trypomastigotes pIC50 72 hours” value came out at 5.5. The “CYP51 pIC50” value in the assay on TcCYP51 was below 4.
As for `CS(=O)(=O)O.Cc1cc(Br)cc(C(=O)c2c(C(C)C)c(=O)[nH]c(=O)n2Cc2ccnc(N)c2)c1` [TCMDC-143626], in assay [1], the “Trypomastigotes pIC50 48 hours” value is reported as below 4.3 and the “Trypomastigotes pIC50 72 hours” value was below 4.3. Moreover, in assay [1] (figure 1A), the “48 pIC50” value is reported as below 4.3 and the “72 pIC50” value is below 4.3. In addition, the “72 pIC50” value in assay [1] (figure 1B) is below 4.3. Also, the “CYP51 pIC50” value with TcCYP51 is 7.8.
`CNc1cc(Cn2c(C(=O)c3cc(C)cc(Cl)c3)c(C(C)C)c(=O)[nH]c2=O)ccn1` [TCMDC-143637]: in assay [1], the “Trypomastigotes pIC50 48 hours” value is reported as below 4.3 and the “Trypomastigotes pIC50 72 hours” value was below 4.3. Moreover, the “72 pIC50 (trypomastigotes, raw data of Fig 1D)” value in assay [1] (72 hours, plotted values, censored values given without sign) is recorded as below 4.3. In assay [1] (figure 1A), the “48 pIC50” value is reported as below 4.3 and the “72 pIC50” value is on record as below 4.3. Moreover, the “72 pIC50” value in assay [1] (figure 1B) is below 4.3. Further, the “ME 24h (maximum effect at 24 hours, intracellular amastigotes)” value in assay [2] is 23.6593%. The “CYP51 pIC50” value with TcCYP51 is listed as 7.5.
